Laboratory results from ChEMBL document CHEMBL1201862, “PubChem BioAssay data set” (2004).
The source made the active and inactive calls.

Columns and labels:
HEK293 [1] = assay: cells; assay type: functional, cell-based; settings: Homo sapiens
HEK293 [2] = assay: cells; assay type: functional, cell-based; settings: Homo sapiens; remark: listed apart in the source
HEK293 [3] = assay: inhibition of NOD1-driven NF-kB reporter – cell-based, luminescence, uHTS, primary screen (AID 1578); assay type: functional; settings: Homo sapiens
HEK293 [4] = assay: cells; assay type: functional, cell-based; settings: Homo sapiens; remark: listed apart in the source
HEK293 [5] = assay: NOD2 signaling inhibitors in MDP-stimulated cells, cell-based, uHTS, luminescence (AID 2001); assay type: functional; settings: Homo sapiens
[6] = target: Nucleotide-binding oligomerization domain-containing protein 2 (Homo sapiens, UniProt Q9HC29); assay: inhibition of NOD2-driven NF-kB reporter – cell-based, luminescence, uHTS, HEK293 (AID 1566); assay type: functional
Cytochrome P450 2C9 [7] = target: T1, Cytochrome P450 2C9 (Homo sapiens, UniProt P11712)
Cytochrome P450 3A4 [8] = target: T2, Cytochrome P450 3A4 (Homo sapiens, UniProt P08684);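 note: CYP3A4 tested as one member of a cytochrome P450 panel screen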
[9] = A Cell Based Secondary Assay To Explore Cytotoxicity of Compounds that Sensitize Mycobacterium Tuberculosis to Beta-Lactam Antibiotics.; assay type: functional
Protein RecA = target: T3, Protein RecA (Mycobacterium tuberculosis, UniProt P9WHJ3); assay: Fluorescence Cell-Free Homogeneous Dose Retest to Identify Inhibitors of RecA-Intein Splicing Activity. [Related pubchem assays (depositor defined):AID2097, AID2223, AID489010, AID492950]; assay type: functional
T3 sequence (P9WHJ3 whole entry): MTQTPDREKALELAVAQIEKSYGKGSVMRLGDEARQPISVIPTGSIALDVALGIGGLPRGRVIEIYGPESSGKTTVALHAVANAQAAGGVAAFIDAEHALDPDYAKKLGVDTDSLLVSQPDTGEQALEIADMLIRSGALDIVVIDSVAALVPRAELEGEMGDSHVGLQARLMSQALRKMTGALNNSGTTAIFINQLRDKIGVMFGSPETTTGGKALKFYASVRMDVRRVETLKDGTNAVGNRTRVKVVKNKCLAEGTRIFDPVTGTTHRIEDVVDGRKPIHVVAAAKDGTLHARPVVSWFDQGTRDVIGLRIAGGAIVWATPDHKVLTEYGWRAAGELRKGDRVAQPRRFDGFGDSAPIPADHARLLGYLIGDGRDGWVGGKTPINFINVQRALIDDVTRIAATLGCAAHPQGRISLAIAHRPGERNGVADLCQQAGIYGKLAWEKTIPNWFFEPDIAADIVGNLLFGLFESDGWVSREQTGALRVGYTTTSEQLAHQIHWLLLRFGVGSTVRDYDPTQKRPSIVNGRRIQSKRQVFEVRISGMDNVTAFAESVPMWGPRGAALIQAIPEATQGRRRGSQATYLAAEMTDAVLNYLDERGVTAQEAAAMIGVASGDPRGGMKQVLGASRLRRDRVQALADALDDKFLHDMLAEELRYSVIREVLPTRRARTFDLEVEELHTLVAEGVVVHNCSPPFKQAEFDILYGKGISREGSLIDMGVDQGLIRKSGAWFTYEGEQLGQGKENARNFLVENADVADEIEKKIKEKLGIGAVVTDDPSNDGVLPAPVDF

[10] = target: T4, Replicative DNA helicase DnaB (Mycobacterium tuberculosis, UniProt P9WMR3); assay: DnaB intein splicing inhibitors, dose response, biochemical, cell-free fluorescence (AID 449749); assay type: functional
T4 sequence (P9WMR3 whole entry): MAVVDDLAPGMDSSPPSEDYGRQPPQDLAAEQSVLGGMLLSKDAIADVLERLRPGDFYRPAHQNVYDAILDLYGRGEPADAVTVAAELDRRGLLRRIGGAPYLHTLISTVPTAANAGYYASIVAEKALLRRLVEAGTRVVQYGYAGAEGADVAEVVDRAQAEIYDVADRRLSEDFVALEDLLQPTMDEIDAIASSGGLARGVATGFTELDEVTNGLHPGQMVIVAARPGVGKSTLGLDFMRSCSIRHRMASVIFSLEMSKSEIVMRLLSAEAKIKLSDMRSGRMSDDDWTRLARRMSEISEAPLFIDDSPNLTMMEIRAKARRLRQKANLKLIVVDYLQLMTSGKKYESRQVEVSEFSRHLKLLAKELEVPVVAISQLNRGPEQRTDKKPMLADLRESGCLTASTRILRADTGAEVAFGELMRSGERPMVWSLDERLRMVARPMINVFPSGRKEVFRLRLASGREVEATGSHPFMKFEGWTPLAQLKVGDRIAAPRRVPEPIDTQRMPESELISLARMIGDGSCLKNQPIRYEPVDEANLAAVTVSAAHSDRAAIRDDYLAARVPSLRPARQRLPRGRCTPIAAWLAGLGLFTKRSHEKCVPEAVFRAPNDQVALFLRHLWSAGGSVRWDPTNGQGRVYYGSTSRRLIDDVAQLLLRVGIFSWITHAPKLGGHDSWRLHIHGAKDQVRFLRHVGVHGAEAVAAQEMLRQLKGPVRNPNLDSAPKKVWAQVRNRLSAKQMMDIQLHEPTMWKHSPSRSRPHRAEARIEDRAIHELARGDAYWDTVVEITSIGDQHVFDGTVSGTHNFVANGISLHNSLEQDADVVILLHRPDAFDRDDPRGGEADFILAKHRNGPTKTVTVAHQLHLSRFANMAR

[11] = Luminescence Cell-Based Dose Retest to Confirm Inhibitors of Cancer Stem Cells. [Related pubchem assays (depositor defined):AID2717, AID2721]; assay type: functional; settings: Homo sapiens
[12] = target: Heat shock protein HSP 90-alpha (Homo sapiens, UniProt P07900); assay type: functional, organism-based
Coagulation factor XII = target: T5, Coagulation factor XII (Homo sapiens, UniProt P00748); assay type: functional;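 note: activated factor XIIa alpha cleaving a fluorogenic AMC peptide substrate; inhibitor potency from loss of enzyme activity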
T5 sequence (P00748 whole entry): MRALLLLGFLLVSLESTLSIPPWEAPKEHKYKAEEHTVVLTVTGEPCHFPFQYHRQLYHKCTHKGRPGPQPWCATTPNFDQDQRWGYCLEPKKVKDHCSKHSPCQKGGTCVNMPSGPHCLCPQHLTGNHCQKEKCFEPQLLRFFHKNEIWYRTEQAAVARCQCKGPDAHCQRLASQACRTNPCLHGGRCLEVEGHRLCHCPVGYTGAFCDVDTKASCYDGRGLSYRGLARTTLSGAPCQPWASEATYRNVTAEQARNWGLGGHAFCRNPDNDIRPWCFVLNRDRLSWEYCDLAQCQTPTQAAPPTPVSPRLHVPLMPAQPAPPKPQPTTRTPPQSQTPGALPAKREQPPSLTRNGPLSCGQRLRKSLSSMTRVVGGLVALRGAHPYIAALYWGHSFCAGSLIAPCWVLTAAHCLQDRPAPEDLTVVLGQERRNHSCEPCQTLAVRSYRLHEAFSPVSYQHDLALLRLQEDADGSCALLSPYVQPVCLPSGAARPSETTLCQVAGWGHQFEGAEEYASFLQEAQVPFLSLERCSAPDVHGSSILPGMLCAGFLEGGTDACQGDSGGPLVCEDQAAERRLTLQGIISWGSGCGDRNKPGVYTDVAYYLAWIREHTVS

[13] = target: T6, Calpain-2 catalytic subunit (Sus scrofa, UniProt P43367); assay: m-calpain protease blockers, concentration series – biochemical, fluorogenic peptide substrate, dose response (AID 1420); assay type: functional
T6 sequence (P43367 whole entry): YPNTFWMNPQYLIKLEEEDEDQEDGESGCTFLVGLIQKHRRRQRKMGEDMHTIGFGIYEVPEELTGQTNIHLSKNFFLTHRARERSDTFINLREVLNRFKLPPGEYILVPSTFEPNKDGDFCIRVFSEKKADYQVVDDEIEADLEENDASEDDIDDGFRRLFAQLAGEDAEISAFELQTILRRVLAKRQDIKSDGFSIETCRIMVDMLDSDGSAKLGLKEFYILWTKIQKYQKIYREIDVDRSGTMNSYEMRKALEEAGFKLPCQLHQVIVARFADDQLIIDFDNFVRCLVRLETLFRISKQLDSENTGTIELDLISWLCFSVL

[14] = target: T7, Voltage-gated N-type calcium channel alpha-1B subunit/Amyloid beta A4 precursor protein-binding family A member 1 (Homo sapiens, UniProt Q00975+Q02410); assay: disruptors of Mint-PDZ/N-type channel peptide interaction – biochemical, HTRF, SAR follow-up (AID 2489); assay type: functional
[15] = target: T7, Voltage-gated N-type calcium channel alpha-1B subunit/Amyloid beta A4 precursor protein-binding family A member 1; assay type: protein assay
[16] = target: T7, Voltage-gated N-type calcium channel alpha-1B subunit/Amyloid beta A4 precursor protein-binding family A member 1; assay type: protein assay; remark: listed apart in the source
[17] = viability of uninfected HEp-2 cells – cell-based, HTS, cytotoxicity control for RSV inhibitor project, dose response (AID 2410); assay type: functional; settings: human respiratory syncytial virus
Cytochrome P450 1A2 = target: T8, Cytochrome P450 1A2 (Homo sapiens, UniProt P05177);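 note: PubChem cytochrome P450 panel assay, CYP1A2 panel member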
T8 sequence (P05177 whole entry): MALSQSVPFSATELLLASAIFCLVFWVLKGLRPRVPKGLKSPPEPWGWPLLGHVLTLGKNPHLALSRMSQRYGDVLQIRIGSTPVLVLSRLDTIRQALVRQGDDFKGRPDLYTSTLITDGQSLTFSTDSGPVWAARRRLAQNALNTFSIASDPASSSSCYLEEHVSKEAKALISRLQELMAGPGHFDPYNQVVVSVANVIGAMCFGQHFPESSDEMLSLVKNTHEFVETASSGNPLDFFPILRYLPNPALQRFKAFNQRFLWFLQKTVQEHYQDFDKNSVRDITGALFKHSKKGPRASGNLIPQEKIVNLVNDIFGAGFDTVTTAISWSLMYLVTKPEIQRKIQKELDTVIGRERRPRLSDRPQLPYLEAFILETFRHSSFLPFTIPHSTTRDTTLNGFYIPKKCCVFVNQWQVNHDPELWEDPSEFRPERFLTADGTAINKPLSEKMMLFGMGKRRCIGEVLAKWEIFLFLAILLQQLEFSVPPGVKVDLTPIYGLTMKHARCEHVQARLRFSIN

Cytochrome P450 3A4 [18] = target: T2, Cytochrome P450 3A4; remark: listed apart in the source
[19] = NIH-3T3 fibroblast cytotoxicity, dose response, cytotoxicity control, cell-based, fluorescence, Alamar Blue, secondary assay (AID 2327); assay type: functional;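 note: NIH-3T3 mouse fibroblasts cultured with fluconazole at 8 µg/mL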
[20] = fluconazole-exposed Candida albicans growth modulators – fluorescence, retest, confirmation (AID 2467); assay type: functional, cell-based
Cytochrome P450 2C9 [21] = target: T1, Cytochrome P450 2C9; remark: listed apart in the source
Tumor necrosis factor = Tumor necrosis factor (Homo sapiens, UniProt P01375); assay: analog potency on TNFa NF-kB signaling – cell-based, revised, SAR follow-up (AID 2337); assay type: functional
HEK293 [22] = assay: cells; settings: Homo sapiens

T2 sequence (P08684 whole entry): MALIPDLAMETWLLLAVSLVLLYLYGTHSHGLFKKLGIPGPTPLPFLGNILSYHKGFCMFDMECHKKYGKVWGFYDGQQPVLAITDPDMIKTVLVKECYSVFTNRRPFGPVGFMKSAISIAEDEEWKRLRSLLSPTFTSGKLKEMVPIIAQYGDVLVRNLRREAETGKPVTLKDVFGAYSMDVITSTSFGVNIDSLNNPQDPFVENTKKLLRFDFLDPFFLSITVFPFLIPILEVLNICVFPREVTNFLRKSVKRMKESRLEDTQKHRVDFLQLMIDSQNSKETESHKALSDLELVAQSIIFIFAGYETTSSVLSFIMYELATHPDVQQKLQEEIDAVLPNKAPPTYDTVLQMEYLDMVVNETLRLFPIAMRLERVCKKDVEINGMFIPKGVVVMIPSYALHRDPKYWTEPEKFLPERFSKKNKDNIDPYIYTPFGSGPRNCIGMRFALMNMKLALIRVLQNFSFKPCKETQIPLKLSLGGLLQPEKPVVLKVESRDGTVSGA
T7 sequence (Q00975 whole entry): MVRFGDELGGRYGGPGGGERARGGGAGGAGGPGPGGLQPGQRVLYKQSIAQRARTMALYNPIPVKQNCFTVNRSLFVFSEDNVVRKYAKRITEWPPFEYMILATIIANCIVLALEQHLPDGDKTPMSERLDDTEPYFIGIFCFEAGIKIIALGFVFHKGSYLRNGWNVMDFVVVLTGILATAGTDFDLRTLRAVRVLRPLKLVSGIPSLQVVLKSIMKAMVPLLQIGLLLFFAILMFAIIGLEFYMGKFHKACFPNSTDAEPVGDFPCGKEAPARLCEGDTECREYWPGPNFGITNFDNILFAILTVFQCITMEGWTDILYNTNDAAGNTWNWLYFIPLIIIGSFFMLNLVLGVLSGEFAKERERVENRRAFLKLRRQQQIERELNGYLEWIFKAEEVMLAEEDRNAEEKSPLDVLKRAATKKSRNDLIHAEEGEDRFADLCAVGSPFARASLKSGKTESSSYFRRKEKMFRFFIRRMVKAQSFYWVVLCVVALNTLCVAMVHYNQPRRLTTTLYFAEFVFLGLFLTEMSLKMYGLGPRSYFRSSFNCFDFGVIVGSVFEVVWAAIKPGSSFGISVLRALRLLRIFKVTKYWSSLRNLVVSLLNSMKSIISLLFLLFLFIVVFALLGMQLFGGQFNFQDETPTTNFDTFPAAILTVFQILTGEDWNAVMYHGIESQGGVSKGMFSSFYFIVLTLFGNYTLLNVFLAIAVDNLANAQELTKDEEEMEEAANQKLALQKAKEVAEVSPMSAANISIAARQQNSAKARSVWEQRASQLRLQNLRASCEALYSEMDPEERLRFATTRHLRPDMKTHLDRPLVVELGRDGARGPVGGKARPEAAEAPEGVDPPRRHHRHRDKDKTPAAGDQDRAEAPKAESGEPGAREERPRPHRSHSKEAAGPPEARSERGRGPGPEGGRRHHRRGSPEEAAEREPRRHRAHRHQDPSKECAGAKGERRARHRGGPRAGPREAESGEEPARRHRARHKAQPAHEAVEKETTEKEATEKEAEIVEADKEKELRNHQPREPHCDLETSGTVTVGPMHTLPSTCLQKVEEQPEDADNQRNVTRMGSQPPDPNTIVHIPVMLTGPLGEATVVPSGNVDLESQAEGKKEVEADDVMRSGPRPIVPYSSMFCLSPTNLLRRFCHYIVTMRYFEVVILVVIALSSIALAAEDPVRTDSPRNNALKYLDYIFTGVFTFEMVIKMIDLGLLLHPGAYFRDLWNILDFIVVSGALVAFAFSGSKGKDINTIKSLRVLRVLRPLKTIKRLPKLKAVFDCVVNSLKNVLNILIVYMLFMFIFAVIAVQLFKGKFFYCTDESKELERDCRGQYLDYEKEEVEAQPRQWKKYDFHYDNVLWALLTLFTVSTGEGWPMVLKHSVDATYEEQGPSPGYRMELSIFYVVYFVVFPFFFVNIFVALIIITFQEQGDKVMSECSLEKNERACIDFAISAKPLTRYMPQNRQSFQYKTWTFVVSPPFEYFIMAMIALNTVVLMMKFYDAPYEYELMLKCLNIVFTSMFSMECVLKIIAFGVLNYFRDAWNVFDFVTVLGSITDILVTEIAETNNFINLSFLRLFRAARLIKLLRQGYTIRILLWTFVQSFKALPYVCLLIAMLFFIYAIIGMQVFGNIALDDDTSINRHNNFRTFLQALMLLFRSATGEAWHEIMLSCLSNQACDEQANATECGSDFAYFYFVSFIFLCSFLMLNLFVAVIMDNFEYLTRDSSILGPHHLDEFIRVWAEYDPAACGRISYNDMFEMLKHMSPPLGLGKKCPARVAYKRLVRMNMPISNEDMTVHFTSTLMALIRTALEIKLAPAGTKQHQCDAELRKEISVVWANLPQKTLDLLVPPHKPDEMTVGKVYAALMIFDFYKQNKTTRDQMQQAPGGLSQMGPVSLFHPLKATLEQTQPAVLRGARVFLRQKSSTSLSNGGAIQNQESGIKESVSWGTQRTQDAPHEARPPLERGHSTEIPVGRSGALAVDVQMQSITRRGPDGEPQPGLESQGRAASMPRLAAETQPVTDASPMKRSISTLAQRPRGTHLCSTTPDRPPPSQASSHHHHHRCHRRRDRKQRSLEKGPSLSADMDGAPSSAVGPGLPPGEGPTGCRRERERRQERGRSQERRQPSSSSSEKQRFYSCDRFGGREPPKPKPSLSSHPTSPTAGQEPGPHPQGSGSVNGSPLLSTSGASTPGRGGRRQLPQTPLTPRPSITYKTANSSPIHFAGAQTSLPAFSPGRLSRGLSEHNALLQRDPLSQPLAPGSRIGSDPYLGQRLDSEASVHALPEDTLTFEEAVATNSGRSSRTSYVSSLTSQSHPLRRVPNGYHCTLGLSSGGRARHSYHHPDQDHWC
T7 sequence (Q02410 whole entry): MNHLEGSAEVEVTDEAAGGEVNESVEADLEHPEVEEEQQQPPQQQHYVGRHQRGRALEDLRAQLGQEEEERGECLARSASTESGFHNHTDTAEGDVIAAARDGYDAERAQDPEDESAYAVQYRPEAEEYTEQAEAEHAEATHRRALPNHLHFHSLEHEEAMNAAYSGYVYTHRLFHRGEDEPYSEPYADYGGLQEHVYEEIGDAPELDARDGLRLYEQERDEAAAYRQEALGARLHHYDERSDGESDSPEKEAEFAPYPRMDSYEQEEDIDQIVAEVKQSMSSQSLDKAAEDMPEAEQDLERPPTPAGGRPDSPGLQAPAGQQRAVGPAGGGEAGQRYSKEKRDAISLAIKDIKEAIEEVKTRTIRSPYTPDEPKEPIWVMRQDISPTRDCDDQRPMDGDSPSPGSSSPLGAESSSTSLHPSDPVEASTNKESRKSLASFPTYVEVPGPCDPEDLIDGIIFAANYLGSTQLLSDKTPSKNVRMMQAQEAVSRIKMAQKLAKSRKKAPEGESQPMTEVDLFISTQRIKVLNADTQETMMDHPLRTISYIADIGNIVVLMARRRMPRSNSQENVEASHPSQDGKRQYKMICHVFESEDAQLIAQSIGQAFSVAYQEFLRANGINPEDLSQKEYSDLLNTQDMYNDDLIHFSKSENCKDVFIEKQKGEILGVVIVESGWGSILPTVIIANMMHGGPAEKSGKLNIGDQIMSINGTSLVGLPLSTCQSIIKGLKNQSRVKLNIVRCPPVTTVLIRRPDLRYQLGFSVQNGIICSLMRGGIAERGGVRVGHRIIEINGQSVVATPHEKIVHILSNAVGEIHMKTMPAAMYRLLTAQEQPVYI
T1 sequence (P11712 whole entry): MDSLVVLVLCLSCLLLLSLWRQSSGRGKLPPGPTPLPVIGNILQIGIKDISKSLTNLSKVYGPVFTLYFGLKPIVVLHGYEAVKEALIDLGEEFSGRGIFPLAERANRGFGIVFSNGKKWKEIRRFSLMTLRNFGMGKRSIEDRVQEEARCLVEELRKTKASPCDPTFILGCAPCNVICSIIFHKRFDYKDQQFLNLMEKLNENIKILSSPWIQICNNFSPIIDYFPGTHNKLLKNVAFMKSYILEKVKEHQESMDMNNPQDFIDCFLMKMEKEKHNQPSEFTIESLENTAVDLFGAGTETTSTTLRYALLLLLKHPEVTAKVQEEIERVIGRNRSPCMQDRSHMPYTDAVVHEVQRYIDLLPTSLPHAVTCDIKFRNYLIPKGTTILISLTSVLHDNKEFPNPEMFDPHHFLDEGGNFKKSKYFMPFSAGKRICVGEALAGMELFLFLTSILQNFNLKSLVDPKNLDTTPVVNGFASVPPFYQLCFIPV
Chain of Tumor necrosis factor (P01375 whole entry): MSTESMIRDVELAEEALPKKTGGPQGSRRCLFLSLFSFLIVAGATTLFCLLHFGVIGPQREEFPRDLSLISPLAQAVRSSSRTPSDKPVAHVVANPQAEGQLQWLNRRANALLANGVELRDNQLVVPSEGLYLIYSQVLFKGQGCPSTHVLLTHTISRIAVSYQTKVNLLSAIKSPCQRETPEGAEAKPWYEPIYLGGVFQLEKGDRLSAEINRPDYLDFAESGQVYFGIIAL

Cc1nc(N2CCC(C)CC2)c2c(C)c(C(=O)Nc3cc(F)ccc3C)sc2n1
IC50 (HEK293 [1]): > 20 µM (inactive) | IC50 (HEK293 [2]): > 20 µM (inactive) | EC50 (HEK293 [3]): > 20 µM (inactive) | IC50 (HEK293 [4]): > 20 µM (inactive) | IC50 (HEK293 [5]): > 20 µM (inactive) | EC50 [6]: > 20 µM (inactive)

COc1ccc2c(c1)CN([C@H](C)[C@@H]1CC[C@@H]3[C@H]4CC[C@H]5C[C@@H](O)CC[C@@]5(C)[C@H]4CC[C@]31C)CO2
AC50 (Cytochrome P450 2C9 [7]): 7.94 µM (inconclusive) | AC50 (Cytochrome P450 3A4 [8]): inconclusive

Cc1cc(Cl)ccc1OC(C)C(=O)NCCCCc1ccccc1 (stereo not drawn)
CC50 [9]: > 40 µM (active)

O=C1COc2ccc(C(=O)CCl)cc2N1
CC50 [9]: 31.8 µM (active) | EC50 (Protein RecA): 26.3 µM (active) | AC50 [10]: 40.4 µM (active)

NC(=O)[C@@H]1CC2(CC(c3cccc(NC(=O)COc4ccc(Cl)cc4)c3)=NO2)CN1C(=O)COc1ccc(Cl)cc1 (stereo partly drawn)
CC50 [9]: > 40 µM (active)

Cc1c(C(=O)N(Cc2ccccc2)Cc2cccs2)cnn1-c1ccc(Cl)cc1
AC50 [11]: 1.77 µM (active) | AC50 [12]: 3.44 µM (active) | IC50 (Coagulation factor XII): > 50 µM (inactive) | IC50 [13]: 4.66 µM (not active)

Cc1cccc(NC(=O)C2(c3ccccc3)CC2(Cl)Cl)c1 (stereo not drawn)
AC50 (Cytochrome P450 3A4 [8]): inconclusive

O=C(CSc1ccc(Cl)cc1)Nc1cccc(-c2nc3ccccc3[nH]2)c1
IC50 [14]: 26.9 µM (active) | IC50 [15]: 2.75 µM (active) | IC50 [16]: 36.7 µM (active)

CC(CCc1ccc(O)cc1)NC(c1ccccc1)c1ccc(Cl)cc1 (stereo not drawn)
IC50 (cells): 11.8 µM (active) | CC50 [17]: 10.3 µM (active)

Oc1nc(COc2ccc(Br)cc2Cl)nc2ccccc12
IC50 (cells): 30.7 µM (active) | CC50 [17]: 23.6 µM (active)

COc1cccc(NC(=O)c2cc(-c3cccnc3)nc3c(Cl)cccc23)c1
CC50 [9]: 33.5 µM (active)

COc1ccc(-c2nc3cnc(N4CCN(C)CC4)nc3n(Cc3ccc(F)cc3)c2=O)cc1
AC50 (Cytochrome P450 1A2): 10 µM (inconclusive) | AC50 (Cytochrome P450 3A4 [8]): inconclusive

Cc1cc(C(C#N)c2cccc(Cl)c2)n2ncnc2n1 (stereo not drawn)
AC50 (Cytochrome P450 3A4 [18]): 14.1 µM (inconclusive) | EC50 [19]: > 160 µM (inactive) | IC50 (Coagulation factor XII): > 50 µM (inactive) | EC50 [20]: 0.598 µM (active) | AC50 (Cytochrome P450 2C9 [21]): inconclusive

CCc1c(C)nc(N)nc1N1N=C1SCC#N
IC50 (Coagulation factor XII): > 50 µM (inactive)

CN(C)c1ccc(NC(=O)c2ccc(CN3CCc4ccccc43)cc2)cc1
IC50 (Tumor necrosis factor): 5.37 µM (active) | IC50 (HEK293 [22]): > 20 µM (inactive)

C/C(=N\NC(=O)c1ccc(NS(=O)(=O)c2cccs2)cc1)c1ccc(C(C)(C)C)cc1
IC50 (cells): 8.48 µM (active) | CC50 [17]: 20.6 µM (active)
